Reference: ChEMBL document CHEMBL1201862, “PubChem BioAssay data set” (2004)
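Following 48 hours of exposure in 96-well plates, responses at five concentrations were used to interpolate endpoints linearly. GI50 marks 50% less growth.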 Calls of active or inactive are those of the source. Rule as the data show it: active = GI50 up to about 1.1 µM and inactive = higher.

Columns and labels:
Experiment in all cases: NCI anticancer screen, dose series, 48 h
786-0 = tested on: 786-0
A498 = tested on: A498
A549 = tested on: A549
ACHN = tested on: ACHN
CAKI-1 = tested on: CAKI-1
CCRF-CEM = tested on: CCRF-CEM
COLO 205 = tested on: COLO 205
DLD-1 = tested on: DLD-1
DMS-114 = tested on: DMS-114
DMS-273 = tested on: DMS-273
EKVX = tested on: EKVX
HCC 2998 = tested on: HCC 2998
HCT-116 = tested on: HCT-116
HCT-15 = tested on: HCT-15
HL-60 = tested on: HL-60
HOP-18 = tested on: HOP-18
HOP-62 = tested on: HOP-62
HOP-92 = tested on: HOP-92
HT-29 = tested on: HT-29
IGROV-1 = tested on: IGROV-1
K562 = tested on: K562
KM-20L2 = tested on: KM-20L2
KM12 = tested on: KM12
LOX IMVI = tested on: LOX IMVI
LXFL 529 = tested on: LXFL 529
M14 = tested on: M14
M19-MEL = tested on: M19-MEL
MOLT-4 = tested on: MOLT-4
Malme-3M = tested on: Malme-3M
NCI-H226 = tested on: NCI-H226
NCI-H23 = tested on: NCI-H23
NCI-H460 = tested on: NCI-H460
NCI-H522 = tested on: NCI-H522
OVCAR-3 = tested on: OVCAR-3
OVCAR-4 = tested on: OVCAR-4
OVCAR-5 = tested on: OVCAR-5
OVCAR-8 = tested on: OVCAR-8
RPMI-8226 = tested on: RPMI-8226
RXF 393 = tested on: RXF 393
RXF 631 = tested on: RXF 631
SF-268 = tested on: SF-268
SF-295 = tested on: SF-295
SF-539 = tested on: SF-539
SK-MEL-28 = tested on: SK-MEL-28
SK-MEL-2 = tested on: SK-MEL-2
SK-MEL-5 = tested on: SK-MEL-5
SK-OV-3 = tested on: SK-OV-3
SN12C = tested on: SN12C
SNB-19 = tested on: SNB-19
SNB-75 = tested on: SNB-75
SNB-78 = tested on: SNB-78
SR = tested on: SR
SW-620 = tested on: SW-620
TK-10 = tested on: TK-10
U-251 = tested on: U-251
UACC-257 = tested on: UACC-257
UACC-62 = tested on: UACC-62
UO-31 = tested on: UO-31
XF498 = tested on: XF498

`CCOc1ccc(Nc2nc(C)c(C(=O)/C=C/c3ccc(Cl)cc3Cl)s2)cc1` was tested, and the GI50 (786-0) was 19.5 µM (inactive), the GI50 (A498) was 22.8 µM (inactive) and the GI50 (A549) was 23.2 µM (inactive). The GI50 (ACHN) was 27.4 µM (inactive), the GI50 (CAKI-1) was 27.1 µM (inactive) and the GI50 (CCRF-CEM) was 29.8 µM (inactive). The GI50 (COLO 205) was 17.8 µM (inactive), the GI50 (DLD-1) was 26.5 µM (inactive) and the GI50 (DMS-114) was 24.9 µM (inactive). For the same compound, the GI50 (DMS-273) was 21.4 µM (inactive), the GI50 (EKVX) was 31.1 µM (inactive) and the GI50 (HCC 2998) was 23.9 µM (inactive). The GI50 (HCT-116) was 21.1 µM (inactive), the GI50 (HCT-15) was 22.2 µM and the GI50 (HL-60) was 27.2 µM (inactive). For the same compound, the GI50 (HOP-18) was 26.3 µM (inactive), the GI50 (HOP-62) was 31.3 µM (inactive) and the GI50 (HOP-92) was 30 µM (inactive). For the same compound, the GI50 (HT-29) was 19.7 µM (inactive), the GI50 (IGROV-1) was 35.5 µM (inactive) and the GI50 (K562) was 33.2 µM (inactive). For the same compound, the GI50 (KM-20L2) was 25.4 µM (inactive), the GI50 (KM12) was 18.3 µM (inactive) and the GI50 (LOX IMVI) was 16.8 µM (inactive). For the same compound, the GI50 (LXFL 529) was 18.8 µM (inactive), the GI50 (M14) was 23.9 µM (inactive) and the GI50 (M19-MEL) was 26.1 µM (inactive). The GI50 (MOLT-4) was 23 µM (inactive), the GI50 (Malme-3M) was 26.3 µM (inactive) and the GI50 (NCI-H226) was 18.2 µM (inactive). The GI50 (NCI-H23) was 22.6 µM (inactive), the GI50 (NCI-H460) was 21.4 µM (inactive) and the GI50 (NCI-H522) was 21.1 µM (inactive). For the same compound, the GI50 (OVCAR-3) was 20.2 µM (inactive), the GI50 (OVCAR-4) was 10.8 µM (inactive) and the GI50 (OVCAR-5) was 40.8 µM (inactive). For the same compound, the GI50 (OVCAR-8) was 21.4 µM (inactive), the GI50 (RPMI-8226) was 46.9 µM (inactive) and the GI50 (RXF 393) was 17.7 µM (inactive). For the same compound, the GI50 (RXF 631) was 21.8 µM (inactive), the GI50 (SF-268) was 24.7 µM (inactive) and the GI50 (SF-295) was 20 µM (inactive). The GI50 (SF-539) was 27.8 µM (inactive), the GI50 (SK-MEL-28) was 22.7 µM (inactive) and the GI50 (SK-MEL-2) was 24 µM (inactive). For the same compound, the GI50 (SK-MEL-5) was 20 µM (inactive), the GI50 (SK-OV-3) was 28.6 µM (inactive) and the GI50 (SN12C) was 19.3 µM (inactive). For the same compound, the GI50 (SNB-19) was 31.4 µM (inactive), the GI50 (SNB-75) was 18.5 µM (inactive) and the GI50 (SNB-78) was 21.4 µM (inactive). The GI50 (SR) was 28.6 µM (inactive), the GI50 (SW-620) was 20.6 µM (inactive) and the GI50 (TK-10) was 22.6 µM (inactive). The GI50 (U-251) was 19.8 µM (inactive), the GI50 (UACC-257) was 24.6 µM (inactive) and the GI50 (UACC-62) was 24 µM (inactive). For the same compound, the GI50 (UO-31) was 25.2 µM (inactive) and the GI50 (XF498) was 19.6 µM (inactive).

`Cc1ccc(NC(=O)CC/C(CC(=O)C(C)(C)C)=N/NC(=O)C(N)=O)cc1C` was tested, and the GI50 (786-0) was > 100 µM (inactive), the GI50 (A498) was > 100 µM (inactive) and the GI50 (A549) was > 100 µM (inactive). The GI50 (ACHN) was > 100 µM (inactive), the GI50 (CAKI-1) was > 100 µM (inactive) and the GI50 (CCRF-CEM) was > 100 µM (inactive). For the same compound, the GI50 (COLO 205) was > 100 µM (inactive), the GI50 (DLD-1) was > 100 µM (inactive) and the GI50 (DMS-114) was > 100 µM (inactive). For the same compound, the GI50 (DMS-273) was > 100 µM (inactive), the GI50 (EKVX) was > 100 µM (inactive) and the GI50 (HCC 2998) was > 100 µM (inactive). For the same compound, the GI50 (HCT-116) was > 100 µM (inactive), the GI50 (HCT-15) was greater than 100 µM and the GI50 (HL-60) was > 100 µM (inactive). For the same compound, the GI50 (HOP-18) was > 100 µM (inactive), the GI50 (HOP-62) was > 100 µM (inactive) and the GI50 (HOP-92) was > 100 µM (inactive). For the same compound, the GI50 (HT-29) was > 100 µM (inactive), the GI50 (IGROV-1) was > 100 µM (inactive) and the GI50 (K562) was > 100 µM (inactive). For the same compound, the GI50 (KM-20L2) was > 100 µM (inactive), the GI50 (KM12) was > 100 µM (inactive) and the GI50 (LXFL 529) was > 100 µM (inactive). The GI50 (M14) was > 100 µM (inactive), the GI50 (M19-MEL) was > 100 µM (inactive) and the GI50 (MOLT-4) was > 100 µM (inactive). The GI50 (Malme-3M) was > 100 µM (inactive), the GI50 (NCI-H226) was > 100 µM (inactive) and the GI50 (NCI-H23) was > 100 µM (inactive). The GI50 (NCI-H460) was > 100 µM (inactive), the GI50 (NCI-H522) was > 100 µM (inactive) and the GI50 (OVCAR-3) was > 100 µM (inactive). For the same compound, the GI50 (OVCAR-4) was > 100 µM (inactive), the GI50 (OVCAR-5) was > 100 µM (inactive) and the GI50 (OVCAR-8) was > 100 µM (inactive). The GI50 (RPMI-8226) was > 100 µM (inactive), the GI50 (RXF 393) was > 100 µM (inactive) and the GI50 (RXF 631) was > 100 µM (inactive). For the same compound, the GI50 (SF-268) was > 100 µM (inactive), the GI50 (SF-295) was > 100 µM (inactive) and the GI50 (SF-539) was > 100 µM (inactive). For the same compound, the GI50 (SK-MEL-28) was > 100 µM (inactive), the GI50 (SK-MEL-2) was > 100 µM (inactive) and the GI50 (SK-MEL-5) was > 100 µM (inactive). For the same compound, the GI50 (SK-OV-3) was > 100 µM (inactive), the GI50 (SN12C) was > 100 µM (inactive) and the GI50 (SNB-19) was > 100 µM (inactive). For the same compound, the GI50 (SNB-75) was > 100 µM (inactive), the GI50 (SNB-78) was > 100 µM (inactive) and the GI50 (SR) was > 100 µM (inactive). For the same compound, the GI50 (SW-620) was > 100 µM (inactive), the GI50 (TK-10) was > 100 µM (inactive) and the GI50 (U-251) was > 100 µM (inactive). For the same compound, the GI50 (UACC-257) was > 100 µM (inactive), the GI50 (UACC-62) was > 100 µM (inactive) and the GI50 (UO-31) was > 100 µM (inactive). The GI50 (XF498) was > 100 µM (inactive).
